Source: PubChem BioAssay AID330 (DTP/NCI, 2004)
Values joined by “and” are separate entries in the source; they are usually repeats but may differ in a detail not shown here. Equal entries are not always repeated. Toxic doses and inconclusive results are not listed. How the source made its calls: active means survival T/C of 150% or more; inactive means T/C below 125% in these data.

System: P388 leukemia ip, CD2F1 mice, survival T/C
Assay: NCI In Vivo Anticancer Drug Screen. Data for tumor model P388 Leukemia (intraperitoneal) in CD2F1 (CDF1) mice
Conditions: endpoint: median survival time, higher = longer survival
Procedure, shortened: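 Mice carrying the transplanted tumor received test compound or vehicle. Survival was recorded in each group, and the value is the treated-group measurement divided by that of the vehicle-treated control group.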

[1] = dose: 50.0 mg/kg/injection, schedule: Q01DX009 (ip), vehicle: saline with Tween-80
[2] = dose: 100.0 mg/kg/injection, schedule: Q01DX009 (ip), vehicle: saline with Tween-80
[3] = dose: 200.0 mg/kg/injection, schedule: Q01DX009 (ip), vehicle: saline with Tween-80
[4] = dose: 200.0 mg/kg/injection, schedule: Q04DX003 (ip), vehicle: saline with Tween-80
[5] = dose: 400.0 mg/kg/injection, schedule: Q04DX003 (ip), vehicle: saline with Tween-80
[6] = dose: 50.0 mg/kg/injection, schedule: Q01DX005 (ip), vehicle: saline with Tween-80
[7] = dose: 100.0 mg/kg/injection, schedule: Q01DX005 (ip), vehicle: saline with Tween-80
[8] = dose: 200.0 mg/kg/injection, schedule: Q01DX005 (ip), vehicle: saline with Tween-80
[9] = dose: 100.0 mg/kg/injection, schedule: Q04DX003 (ip), vehicle: saline
[10] = dose: 200.0 mg/kg/injection, schedule: Q04DX003 (ip), vehicle: saline
[11] = dose: 400.0 mg/kg/injection, schedule: Q04DX003 (ip), vehicle: saline
[12] = dose: 60.0 mg/kg/injection, schedule: Q01DX005 (ip), vehicle: saline with Tween-80
[13] = dose: 120.0 mg/kg/injection, schedule: Q01DX005 (ip), vehicle: saline with Tween-80
[14] = dose: 50.0 mg/kg/injection, schedule: Q01DX005 (ip), vehicle: Klucel (hydroxypropylcellulose) (HPC)
[15] = dose: 100.0 mg/kg/injection, schedule: Q01DX005 (ip), vehicle: Klucel (hydroxypropylcellulose) (HPC)
[16] = dose: 200.0 mg/kg/injection, schedule: Q01DX005 (ip), vehicle: Klucel (hydroxypropylcellulose) (HPC)

Measured: T/C

NC1(C(=O)NCSc2ccccc2)CC=CCC1 (configuration not stated)
inactive: dose: 45.5 mg/kg/injection, schedule: Q01DX005 (ip), vehicle: Klucel (hydroxypropylcellulose) (HPC) 97 % of control | dose: 91.0 mg/kg/injection, schedule: Q01DX005 (ip), vehicle: Klucel (hydroxypropylcellulose) (HPC) 103 % of control | dose: 182.0 mg/kg/injection, schedule: Q01DX005 (ip), vehicle: Klucel (hydroxypropylcellulose) (HPC) 96 % of control

COc1ccc2c(C)cc(OC)nc2c1
inactive: [1] 94 % of control | [2] 91 % of control | [3] 97 % of control

COc1cc(CC2c3cc(OC)c(OC)cc3CCN2C)c(Oc2cc3c(cc2OC)-c2c(O)c(OC)cc4c2C(C3)N(C)CC4)cc1OC (configuration not stated)
inactive: dose: 12.5 mg/kg/injection, schedule: Q04DX003 (ip), vehicle: saline with Tween-80 101 % of control | dose: 25.0 mg/kg/injection, schedule: Q04DX003 (ip), vehicle: saline with Tween-80 101 % of control | dose: 50.0 mg/kg/injection, schedule: Q04DX003 (ip), vehicle: saline with Tween-80 100 % of control | [4] 89 % of control | [5] 97 % of control

CN(C)c1ncnc2nc(Cl)[nH]c12
inactive: dose: 6.25 mg/kg/injection, schedule: Q01DX005 (ip), vehicle: Klucel (hydroxypropylcellulose) (HPC) 95 % of control | dose: 12.5 mg/kg/injection, schedule: Q01DX005 (ip), vehicle: Klucel (hydroxypropylcellulose) (HPC) 112 % of control | dose: 25.0 mg/kg/injection, schedule: Q01DX005 (ip), vehicle: Klucel (hydroxypropylcellulose) (HPC) 108 % of control

CCCCCCCCOCC(=O)O
inactive: [1] 107 % of control | [2] 94 % of control | [3] 96 % of control

CC(C)CC(NC(=O)C(CCCCN)N(C(=O)OCc1ccccc1)C(=O)OCc1ccccc1)C(=O)O (configuration not stated)
inactive: [6] 99 % of control | [7] 99 % of control | [8] 90 % of control

O=C(OC(c1ccccc1)c1ccccc1)c1ccc([N+](=O)[O-])cc1
inactive: [1] 101 % of control | [2] 106 % of control | [3] 108 % of control

CCS(=O)C(F)(F)C(F)Cl (configuration not stated)
inactive: [6] 97 % of control | [7] 100 % of control | [8] 100 % of control

CCOC(=O)C1C2(C)NC(=O)C1(Cc1ccccc1)c1ccc(O)cc1O2 (configuration not stated)
inactive: [6] 95 % of control | [7] 96 % of control | [8] 95 % of control

C#Cc1cccc(N=Cc2cc(Br)cc(OC)c2O)c1
inactive: [6] 90 % of control | [7] 92 % of control | [8] 111 % of control

CC(=N\O)/C(=N\O)C(=O)c1ccccc1
inactive: [1] 95 % of control | [2] 90 % of control | [3] 90 % of control

COc1ccc2cc1Oc1ccc(cc1)CC1c3cc(OC)c(cc3CCN1C)Oc1c(O)c(OC)cc3c1C(C2)N(C)CC3 (configuration not stated)
inactive: dose: 3.88 mg/kg/injection, schedule: Q01DX005 (ip), vehicle: Klucel (hydroxypropylcellulose) (HPC) 103 % of control | dose: 7.75 mg/kg/injection, schedule: Q01DX005 (ip), vehicle: Klucel (hydroxypropylcellulose) (HPC) 95 % of control | dose: 15.5 mg/kg/injection, schedule: Q01DX005 (ip), vehicle: Klucel (hydroxypropylcellulose) (HPC) 95 % of control | dose: 31.0 mg/kg/injection, schedule: Q01DX005 (ip), vehicle: Klucel (hydroxypropylcellulose) (HPC) 95 % of control

O=C(Cc1ccccc1)c1ccccc1
inactive: dose: 100.0 mg/kg/injection, schedule: Q04DX003 (ip), vehicle: saline with Tween-80 98 % of control | [4] 100 % of control | [5] 100 % of control

CCCCCCC(=O)CC(SCC)c1ccccc1 (configuration not stated)
inactive: [1] 106 % of control | [2] 113 % of control | [3] 114 % of control

O=C(NO)c1ccncc1
inactive: [9] 100 % of control | [10] 109 % of control | [11] 109 % of control

O=C(C1CC2CCN1CC2)N1CCN(C(=O)C2CC3CCN2CC3)CC1 (configuration not stated)
inactive: dose: 1.56 mg/kg/injection, schedule: Q01DX005 (ip), vehicle: saline 98 % of control | dose: 3.12 mg/kg/injection, schedule: Q01DX005 (ip), vehicle: saline 102 % of control and 96 % of control | dose: 6.25 mg/kg/injection, schedule: Q01DX005 (ip), vehicle: saline 97 % of control | [12] 101 % of control | [13] 101 % of control

CCC1=NOC(n2c3ccccc3c3ccccc32)C1 (configuration not stated)
inactive: [14] 100 % of control | [15] 100 % of control | [16] 95 % of control

CCC(C)n1c(C)nc2cc(C(F)(F)F)cc(N)c21 (configuration not stated)
inactive: dose: 50.0 mg/kg/injection, schedule: Q01DX009 (ip), vehicle: saline + alcohol 99 % of control | dose: 100.0 mg/kg/injection, schedule: Q01DX009 (ip), vehicle: saline + alcohol 99 % of control

COc1cc2c(cc1C1CCCCCc3c1n(C)c1ccccc31)C1CCCCC1N2C (configuration not stated)
inactive: dose: 12.5 mg/kg/injection, schedule: Q01DX001 (ip), vehicle: distilled water + Tween-80 108 % of control | dose: 25.0 mg/kg/injection, schedule: Q01DX001 (ip), vehicle: distilled water + Tween-80 116 % of control | dose: 50.0 mg/kg/injection, schedule: Q01DX001 (ip), vehicle: distilled water + Tween-80 101 % of control | dose: 100.0 mg/kg/injection, schedule: Q01DX001 (ip), vehicle: distilled water + Tween-80 111 % of control | dose: 200.0 mg/kg/injection, schedule: Q01DX001 (ip), vehicle: distilled water + Tween-80 111 % of control

COC(=O)C1=CO[C@@H](OC2OC(CO)C(O)C(O)C2O)[C@@H]2[C@H](C)[C@@H](O)[C@@H](O)[C@]12O (some centres not stated)
inactive: dose: 25.0 mg/kg/injection, schedule: Q01DX005 (ip), vehicle: saline 115 % of control | dose: 50.0 mg/kg/injection, schedule: Q01DX005 (ip), vehicle: saline 100 % of control | dose: 100.0 mg/kg/injection, schedule: Q01DX005 (ip), vehicle: saline 106 % of control | dose: 200.0 mg/kg/injection, schedule: Q01DX005 (ip), vehicle: saline 106 % of control

Cc1cc(NCCCCN2CCOCC2)nc2ccc3ccccc3c12
inactive: [6] 101 % of control | [7] 105 % of control

Cc1ccc2c(c1)C1(C)OC(C=CC1S(=O)c1ccccc1)O2 (configuration not stated)
inactive: [14] 102 % of control | [15] 101 % of control | [16] 113 % of control

COC(=O)/C(C#N)=C(C)/C=C/c1ccc(OC)cc1
inactive: [9] 97 % of control | [10] 92 % of control | [11] 98 % of control

Cc1ccc(N2[C@H]3CCCN3c3ccc(C)cc3[C@@H]2C(F)(F)F)cc1
inactive: [6] 110 % of control | [7] 100 % of control | [8] 100 % of control

O=C(N/N=C/c1ccccc1[OH2+])c1ccncc1.O=S(=O)([O-])[O-].[Fe+2]
inactive: dose: 100.0 mg/kg/injection, schedule: Q01DX001 (ip), vehicle: Klucel (hydroxypropylcellulose) (HPC) 94 % of control | dose: 200.0 mg/kg/injection, schedule: Q01DX001 (ip), vehicle: Klucel (hydroxypropylcellulose) (HPC) 92 % of control

CCCN=C(c1ccccc1C=O)c1c2ccccc2cn1CCC
inactive: dose: 7.5 mg/kg/injection, schedule: Q01DX005 (ip), vehicle: saline + Tween-80 + alcohol 114 % of control | dose: 15.0 mg/kg/injection, schedule: Q01DX005 (ip), vehicle: saline + Tween-80 + alcohol 124 % of control | dose: 30.0 mg/kg/injection, schedule: Q01DX005 (ip), vehicle: saline + Tween-80 + alcohol 119 % of control

COC(=O)CCC(NC(=O)C(CCCCN)N(C(=O)OCc1ccccc1)C(=O)OCc1ccccc1)C(=O)OC (configuration not stated)
inactive: [6] 101 % of control | [7] 101 % of control | [8] 98 % of control

CCCCSc1ccc(N=[N+]([O-])c2ccc(SCCCC)nc2SCCCC)c(SCCCC)n1
inactive: [1] 94 % of control | [2] 90 % of control | [3] 88 % of control

CC(C)CC(NC(c1ccccc1)P(=O)(O)O)C(=O)O (configuration not stated)
inactive: [12] 100 % of control | [13] 96 % of control | dose: 240.0 mg/kg/injection, schedule: Q01DX005 (ip), vehicle: saline with Tween-80 91 % of control

O=c1[nH]cc(N=Cc2cccc3c2OCO3)c(=O)[nH]1
inactive: dose: 100.0 mg/kg/injection, schedule: Q01DX001 (ip), vehicle: suspension in saline 99 % of control | dose: 200.0 mg/kg/injection, schedule: Q01DX001 (ip), vehicle: suspension in saline 86 % of control

COC(=O)C1=C(N)C(C#N)=C(C)C(C)(O)C1 (configuration not stated)
inactive: dose: 50.0 mg/kg/injection, schedule: Q01DX009 (ip), vehicle: Klucel (hydroxypropylcellulose) (HPC) 99 % of control | dose: 100.0 mg/kg/injection, schedule: Q01DX009 (ip), vehicle: Klucel (hydroxypropylcellulose) (HPC) 97 % of control | dose: 200.0 mg/kg/injection, schedule: Q01DX009 (ip), vehicle: Klucel (hydroxypropylcellulose) (HPC) 108 % of control
